Laboratory results reported in US20210127673A1, “HERBICIDES” (SYNGENTA PARTICIPATIONS AG, priority 2016, published 2021).

Legend:
Type in all cases: in vivo
Conditions in all cases: evaluated after 13 days
[1] = tested on: Setaria faberi (SETFA); assay: Pre-emergence herbicidal activity, Setaria faberi; parameters: key: 5=total damage to plant; 0=no damage to plant
Summary of the method: (§1)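 Compound is applied as an aqueous spray (acetone/water 50:50, 0.5% Tween 20) to pots one day after sowing, before emergence. Growth continues in a glasshouse at 24/16 °C, 14 h photoperiod, 65% humidity, with twice-daily watering, and injury is graded after 13 days from 0 (no damage) to 5 (total damage).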

[2] = tested on: Avena fatua (AVEFA); assay: Pre-emergence herbicidal activity, Avena fatua; parameters: key: 5=total damage to plant; 0=no damage to plant
Summary of the method: as §1

[3] = tested on: Lolium perenne (LOLPE); assay: Post-emergence herbicidal activity, Lolium perenne; parameters: key: 5=total damage to plant; 0=no damage to plant
Summary of the method: (§2)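 Each value is a visual damage score from 0 (no effect) to 5 (plant killed), assessed 13 days after a foliar spray applied to 8-day-old plants. The compound was applied in acetone/water 50:50 with 0.5% Tween 20 under controlled glasshouse conditions.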

[4] = tested on: Alopecurus myosuroides (ALOMY); assay: Post-emergence herbicidal activity, Alopecurus myosuroides; parameters: key: 5=total damage to plant; 0=no damage to plant
Summary of the method: as §2

[5] = tested on: Triticum aestivium (TRZAW); assay: Pre-emergence herbicidal activity, Triticum aestivium; parameters: key: 5=total damage to plant; 0=no damage to plant
Summary of the method: as §1

[6] = tested on: Setaria faberi (SETFA); assay: Post-emergence herbicidal activity, Setaria faberi; parameters: key: 5=total damage to plant; 0=no damage to plant
Summary of the method: as §2

[7] = tested on: Triticum aestivium (TRZAW); assay: Post-emergence herbicidal activity, Triticum aestivium; parameters: key: 5=total damage to plant; 0=no damage to plant
Summary of the method: as §2

[8] = tested on: Echinochloa crus-galli (ECHCG); assay: Pre-emergence herbicidal activity, Echinochloa crus-galli; parameters: key: 5=total damage to plant; 0=no damage to plant
Summary of the method: as §1

[9] = tested on: Lolium perenne (LOLPE); assay: Pre-emergence herbicidal activity, Lolium perenne; parameters: key: 5=total damage to plant; 0=no damage to plant
Summary of the method: as §1

[10] = tested on: Echinochloa crus-galli (ECHCG); assay: Post-emergence herbicidal activity, Echinochloa crus-galli; parameters: key: 5=total damage to plant; 0=no damage to plant
Summary of the method: as §2

[11] = tested on: Avena fatua (AVEFA); assay: Post-emergence herbicidal activity, Avena fatua
Summary of the method: as §2

[12] = tested on: Alopecurus myosuroides (ALOMY); assay: Pre-emergence herbicidal activity, Alopecurus myosuroides; parameters: key: 5=total damage to plant; 0=no damage to plant
Summary of the method: as §1

Structure (SMILES) | Control of SETFA after pre-emergence application (score 0-5) ([1]; 250 g/ha) | Control of AVEFA after pre-emergence application (score 0-5) ([2]; 250 g/ha) | Control of LOLPE after post-emergence application (score 0-5) ([3]; 250 g/ha) | Control of ALOMY after post-emergence application (score 0-5) ([4]; 250 g/ha) | Control of TRAZW after pre-emergence application (score 0-5) ([5]; 250 g/ha) | Control of SETFA after post-emergence application (score 0-5) ([6]; 250 g/ha) | Control of TRAZW after post-emergence application (score 0-5) ([7]; 250 g/ha) | Control of ECHCG after pre-emergence application (score 0-5) ([8]; 250 g/ha) | Control of LOLPE after pre-emergence application (score 0-5) ([9]; 250 g/ha) | Control of ECHCG after post-emergence application (score 0-5) ([10]; 250 g/ha) | Control of AVEFA after post-emergence application (score 0-5) ([11]; 250 g/ha) | Control of ALOMY after pre-emergence application (score 0-5) ([12]; 250 g/ha) | Control of SETFA after pre-emergence application (score 0-5) ([1]; 1000 g/ha) | Control of AVEFA after pre-emergence application (score 0-5) ([2]; 1000 g/ha) | Control of LOLPE after post-emergence application (score 0-5) ([3]; 1000 g/ha) | Control of ALOMY after post-emergence application (score 0-5) ([4]; 1000 g/ha) | Control of TRAZW after pre-emergence application (score 0-5) ([5]; 1000 g/ha) | Control of SETFA after post-emergence application (score 0-5) ([6]; 1000 g/ha) | Control of TRAZW after post-emergence application (score 0-5) ([7]; 1000 g/ha) | Control of ECHCG after pre-emergence application (score 0-5) ([8]; 1000 g/ha) | other results
O=C(NCc1cccnc1)Nc1ccc(-c2cncc(F)c2)nc1C(F)(F)F [Compound B97] | 0 | 0 | 1 | 0 | 0 | 1 | 0 | 0 | 0 | 1 | 2 | 0 |  |  |  |  |  |  |  |  | 
CSCCCNC(=O)Nc1ccc(-c2cncc(F)c2)nc1C(F)(F)F [Compound B98] | 4 | 1 | 0 | 0 | 0 | 5 | 0 | 1 | 1 | 2 | 3 | 0 |  |  |  |  |  |  |  |  | 
C#CC(C)(C)NC(=O)Nc1ccc(-c2cncc(F)c2)nc1C(F)(F)F [Compound B102] |  |  |  |  |  |  |  |  |  |  |  |  | 5 | 3 | 3 | 1 | 0 | 5 | 1 | 4 | Control of LOLPE after pre-emergence application (score 0-5) ([9]; 1000 g/ha): 2; Control of ECHCG after post-emergence application (score 0-5) ([10]; 1000 g/ha): 5; Control of AVEFA after post-emergence application (score 0-5) ([11]; 1000 g/ha): 4; Control of ALOMY after pre-emergence application (score 0-5) ([12]; 1000 g/ha): 0
O=C(NCC1CC1)Nc1ccc(-c2cncc(F)c2)nc1C(F)(F)F [Compound B104] | 5 | 0 | 1 | 1 | 0 | 5 | 0 | 2 | 1 | 3 | 3 | 0 |  |  |  |  |  |  |  |  | 
O=C(Nc1ccc(-c2cncc(F)c2)nc1C(F)(F)F)OCc1ccc(Cl)cc1 [Compound B105] |  |  |  |  |  |  |  |  |  |  |  |  | 5 | 1 | 1 | 0 | 0 | 5 | 0 | 2 | Control of LOLPE after pre-emergence application (score 0-5) ([9]; 1000 g/ha): 1; Control of ECHCG after post-emergence application (score 0-5) ([10]; 1000 g/ha): 4; Control of AVEFA after post-emergence application (score 0-5) ([11]; 1000 g/ha): 3; Control of ALOMY after pre-emergence application (score 0-5) ([12]; 1000 g/ha): 0
CCCCNC(=O)Nc1ccc(-c2cncc(F)c2)nc1C(F)(F)F [Compound B106] | 5 | 1 | 1 | 0 | 0 | 5 | 0 | 1 | 1 | 3 | 3 | 0 |  |  |  |  |  |  |  |  | 
